Measurements taken from paper PMC10648927, “Examining the activity of cefepime-taniborbactam against Burkholderia cepacia complex and Burkholderia gladioli isolated from cystic fibrosis patients in the United States” (Antimicrobial Agents and Chemotherapy, 2023).
Converted amounts (≈) assume the structure as drawn.

What was measured:
Design in all cases: agar dilution MIC, growth inhibition of clinical Burkholderia isolates
[1] = test system: T1, B. ambifaria AU19862; assay: microbe, parasite or virus in culture; settings: Burkholderia ambifaria, AU19862
T1 construct: AU19862
Description: (§1) We evaluated the activity of cefepime-taniborbactam against a panel of 140 Bcc clinical isolates (i.e., species ambifaria, arboris, cenocepacia, cepacia, contaminans, diffusa, dolosa, multivorans, pseudomultivorans, pyrrocinia, seminalis, stabilis, ubonensis, and vietnamiensis) and 10 B. gladioli from the Burkholderia cepacia Research Laboratory and Repository (University of Michigan) ([22], [25], [31]) (Supplementary Material, Tables S1 and S2). K. pneumoniae ATCC 700603 carrying bla SHV-18 and K. pneumoniae ATCC BAA-1705 harboring bla KPC strains were used as controls for β-lactam and β-lactamase inhibitor integrity; all controls tested within the anticipated quality control ranges (Table S3). Minimum inhibitory concentration (MIC) results were interpreted using Clinical Laboratory Standards Institute (CLSI) breakpoints, where available ([32]). […] An alternative cefepime-taniborbactam provisional susceptible breakpoint of ≤16 µg/mL is supported by in vivo efficacy data from neutropenic murine infection models (thigh, complicated urinary tract, and lung) ([15] [–] [17]) and data from safety and pharmacokinetics studies in human volunteers ([33], [34]). The cefepime-taniborbactam antimicrobial activity was compared to cefepime, meropenem, meropenem-vaborbactam, and levofloxacin, to data published for first-line agents (e.g., ceftazidime and trimethoprim-sulfamethoxazole) and to those recommended by the CLSI for clinical testing (e.g., minocycline) against the Bcc and B. gladioli panel ([22], [32]). Of note, the MICs of all these agents were determined by the agar dilution method, which alongside broth microdilution, are recommended by the CLSI to assess the antimicrobial susceptibility of Bcc isolates ([32]).

[2] = test system: T2, B. cenocepacia AU11339; assay: microbe, parasite or virus in culture; settings: Burkholderia cenocepacia, AU11339
T2 construct: AU11339
Description: as §1

[3] = test system: T3, B. cenocepacia AU16448; assay: microbe, parasite or virus in culture; settings: Burkholderia cenocepacia, AU16448
T3 construct: AU16448
Description: as §1

[4] = test system: T4, B. cenocepacia AU20902; assay: microbe, parasite or virus in culture; settings: Burkholderia cenocepacia, AU20902
T4 construct: AU20902
Description: as §1

[5] = test system: T5, B. cenocepacia AU20998; assay: microbe, parasite or virus in culture; settings: Burkholderia cenocepacia, AU20998
T5 construct: AU20998
Description: as §1

[6] = test system: T6, B. cenocepacia AU3663; assay: microbe, parasite or virus in culture; settings: Burkholderia cenocepacia, AU3663
T6 construct: AU3663
Description: as §1

[7] = test system: T7, B. cepacia AU0329; assay: microbe, parasite or virus in culture; settings: Burkholderia cepacia, AU0329
T7 construct: AU0329
Description: as §1

[8] = test system: T8, B. cepacia AU13163; assay: microbe, parasite or virus in culture; settings: Burkholderia cepacia, AU13163
T8 construct: AU13163
Description: as §1

[9] = test system: T9, B. cepacia AU23707; assay: microbe, parasite or virus in culture; settings: Burkholderia cepacia, AU23707
T9 construct: AU23707
Description: as §1

[10] = test system: T10, B. contaminans AU25403; assay: organism not typed
T10 construct: AU25403
Description: as §1

[11] = test system: T11, B. dolosa AU29985; assay: microbe, parasite or virus in culture; settings: Burkholderia dolosa, AU29985
T11 construct: AU29985
Description: as §1

[12] = test system: T12, B. gladioli AU29541; assay: organism not typed
T12 construct: AU29541
Description: as §1

[13] = test system: T13, B. multivorans AU10398; assay: microbe, parasite or virus in culture; settings: Burkholderia multivorans, AU10398
T13 construct: AU10398
Description: as §1

[14] = test system: T14, B. multivorans AU14328; assay: microbe, parasite or virus in culture; settings: Burkholderia multivorans, AU14328
T14 construct: AU14328
Description: as §1

[15] = test system: T15, B. multivorans AU18096; assay: microbe, parasite or virus in culture; settings: Burkholderia multivorans, AU18096
T15 construct: AU18096
Description: as §1

[16] = test system: T16, B. multivorans AU19729; assay: microbe, parasite or virus in culture; settings: Burkholderia multivorans, AU19729
T16 construct: AU19729
Description: as §1

[17] = test system: T17, B. multivorans AU22892; assay: microbe, parasite or virus in culture; settings: Burkholderia multivorans, AU22892
T17 construct: AU22892
Description: as §1

[18] = test system: T18, B. multivorans AU30760; assay: microbe, parasite or virus in culture; settings: Burkholderia multivorans, AU30760
T18 construct: AU30760
Description: as §1

[19] = test system: T19, B. pseudomultivorans AU19682; assay: organism not typed
T19 construct: AU19682
Description: as §1

[20] = test system: T20, B. pyrrocinia AU1114; assay: microbe, parasite or virus in culture; settings: Burkholderia pyrrocinia, AU1114
T20 construct: AU1114
Description: as §1

[21] = test system: T21, Burkholderia cepacia complex Bcc Indeterminate AU14962; assay: microbe, parasite or virus in culture; settings: Burkholderia cepacia
T21 construct: AU14962
Description: as §1

[22] = test system: T22, Burkholderia cepacia complex Bcc Indeterminate AU19821; assay: microbe, parasite or virus in culture; settings: Burkholderia cepacia
T22 construct: AU19821
Description: as §1

| SMILES | MIC [1] [µg/mL] | MIC [2] [µg/mL] | MIC [3] [µg/mL] | MIC [4] [µg/mL] | MIC [5] [µg/mL] | MIC [6] [µg/mL] | MIC [7] [µg/mL] | MIC [8] [µg/mL] | MIC [9] [µg/mL] | MIC [10] [µg/mL] | MIC [11] [µg/mL] | MIC [12] [µg/mL] | MIC [13] [µg/mL] | MIC [14] [µg/mL] | MIC [15] [µg/mL] | MIC [16] [µg/mL] | MIC [17] [µg/mL] | MIC [18] [µg/mL] | MIC [19] [µg/mL] | MIC [20] [µg/mL] | further results |
| --- | --- | --- | --- | --- | --- | --- | --- | --- | --- | --- | --- | --- | --- | --- | --- | --- | --- | --- | --- | --- | --- |
| CO/N=C(\C(=O)N[C@@H]1C(=O)N2C(C(=O)[O-])=C(C[N+]3(C)CCCC3)CS[C@H]12)c1csc(N)n1 [cefepime] | 16 (≈ 33.3 µM) | 16 (≈ 33.3 µM) | 16 (≈ 33.3 µM) | 16 (≈ 33.3 µM) | > 32 | 32 (≈ 66.6 µM) | > 32 | 16 (≈ 33.3 µM) | 32 (≈ 66.6 µM) | 8 (≈ 16.6 µM) | > 32 | 32 (≈ 66.6 µM) | > 32 | 8 (≈ 16.6 µM) | 2 (≈ 4.16 µM) | > 32 | 2 (≈ 4.16 µM) | 8 (≈ 16.6 µM) | > 32 | 8 (≈ 16.6 µM) | MIC [21]: > 32 µg/mL; MIC [22]: > 32 µg/mL |
| C[C@H]1COc2c(N3CCN(C)CC3)c(F)cc3c(=O)c(C(=O)O)cn1c23 [levofloxacin] | 8 (≈ 22.1 µM) | 2 (≈ 5.53 µM) | 8 (≈ 22.1 µM) | 4 (≈ 11.1 µM) | > 32 | 16 (≈ 44.3 µM) | > 32 | 2 (≈ 5.53 µM) | 32 (≈ 88.6 µM) | 2 (≈ 5.53 µM) | > 32 | 8 (≈ 22.1 µM) | 16 (≈ 44.3 µM) | 2 (≈ 5.53 µM) | 4 (≈ 11.1 µM) | 16 (≈ 44.3 µM) | 2 (≈ 5.53 µM) | 2 (≈ 5.53 µM) | 16 (≈ 44.3 µM) | > 32 | MIC [21]: 2 µg/mL (≈ 5.53 µM); MIC [22]: 32 µg/mL (≈ 88.6 µM) |
| C[C@@H](O)[C@H]1C(=O)N2C(C(=O)O)=C(S[C@@H]3CN[C@H](C(=O)N(C)C)C3)[C@H](C)[C@H]12 [meropenem] | 2 (≈ 5.22 µM) | 2 (≈ 5.22 µM) | 4 (≈ 10.4 µM) | 4 (≈ 10.4 µM) | 8 (≈ 20.9 µM) | 4 (≈ 10.4 µM) | 2 (≈ 5.22 µM) | 4 (≈ 10.4 µM) | 8 (≈ 20.9 µM) | 2 (≈ 5.22 µM) | > 32 | 8 (≈ 20.9 µM) | 8 (≈ 20.9 µM) | 4 (≈ 10.4 µM) | 1 (≈ 2.61 µM) | 16 (≈ 41.7 µM) | 4 (≈ 10.4 µM) | 2 (≈ 5.22 µM) | 8 (≈ 20.9 µM) | 4 (≈ 10.4 µM) | MIC [21]: 8 µg/mL (≈ 20.9 µM); MIC [22]: 16 µg/mL (≈ 41.7 µM) |
